The supplement of paper PMC10307832

compound: CC1CC(=O)N(C2=CN=C(N=C2N1C3CCCC3)NC4=C(C=C(C=C4)C(=O)NC5CCN(CC5)C)OC)C [NPK76-II-72-1] + O=C(CCCCCCC(=O)Nc1ccccc1)NO [Vorinostat] (partner 1 µM); assay: relative viability (nuclei count vs DMSO), 5 days (fraction); higher = more cells survive; details: first compound 0.01 µM
In short: (§1)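 Lung cancer cell lines were pin-tool dosed in 1536-well plates on the day after seeding, with either a lone drug or a fixed anchor-drug dose plus five library-drug doses (not always all listed) in √10 steps. Nuclei were counted on 4× images after 5 days. Relative viability is the ratio of treated-well to vehicle-well nuclei counts, with each value a median of duplicate plates.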

In order of rising relative viability:
1. HCC-366  0.358
2. COR-L23  0.408
3. EMC-BAC-2  0.423
4. LU99A  0.437
5. LK-2  0.451
6. NCI-H1648  0.455
7. HCC-78  0.456
8. NCI-H1993  0.486
9. SW 900  0.515
10. NCI-H2087  0.569
11. NCI-H1650  0.571
12. HOP-62  0.618
13. NCI-H838  0.69
14. ChaGo-K-1  0.703
15. NCI-H520  0.706
16. NCI-H596  0.718
17. NCI-H2085  0.731
18. NCI-H2170  0.731
19. NCI-H2342  0.742
20. COR-L 105  0.747
21. NCI-H2126  0.761
22. SW 1573  0.787
23. H3255  0.873
24. LOU-NH91  0.89
25. NCI-H2405  0.949
26. NCI-H1666  1.04
27. SK-MES-1  1.06
28. HCC-44  1.08
29. IA-LM  1.1
30. NCI-H727  1.23

same assay, conditions: first compound 0.03162 µM

In order of falling relative viability:
1. NCI-H727  1.33
2. HCC-44  1.22
3. SK-MES-1  1.05
4. NCI-H1666  0.996
5. LOU-NH91  0.935
6. IA-LM  0.923
7. NCI-H2342  0.917
8. SW 1573  0.916
9. NCI-H522  0.902
10. NCI-H2170  0.855
11. NCI-H2087  0.854
12. NCI-H520  0.84
13. LCLC-103H  0.83
14. NCI-H2085  0.808
15. COR-L 105  0.807
16. NCI-H2126  0.798
17. NCI-H2405  0.791
18. NCI-H1993  0.777
19. HOP-62  0.767
20. ChaGo-K-1  0.735
21. NCI-H838  0.73
22. SW 900  0.624
23. NCI-H596  0.615
24. H3255  0.605
25. NCI-H1648  0.536
26. COR-L23  0.519
27. NCI-H1650  0.508
28. LU99A  0.492
29. HCC-78  0.461
30. HCC-366  0.361
31. LK-2  0.263
32. EMC-BAC-2  0.186

same assay, conditions: first compound 0.1 µM

In order of falling relative viability:
1. NCI-H727  1.2
2. SK-MES-1  1.12
3. HCC-44  1.11
4. NCI-H2405  1.04
5. NCI-H522  0.995
6. NCI-H1666  0.983
7. IA-LM  0.852
8. NCI-H2126  0.846
9. COR-L 105  0.832
10. NCI-H2170  0.823
11. ChaGo-K-1  0.809
12. NCI-H2085  0.794
13. NCI-H1993  0.784
14. NCI-H2342  0.783
15. LCLC-103H  0.769
16. LOU-NH91  0.763
17. H3255  0.722
18. NCI-H838  0.717
19. NCI-H520  0.698
20. NCI-H596  0.696
21. NCI-H1650  0.658
22. SW 1573  0.637
23. LU99A  0.62
24. HOP-62  0.598
25. NCI-H2087  0.572
26. SW 900  0.515
27. EMC-BAC-2  0.493
28. HCC-78  0.463
29. COR-L23  0.408
30. HCC-366  0.394
31. LK-2  0.36
32. NCI-H1648  0.319

same assay, conditions: first compound 0.3162 µM

In order of rising relative viability:
1. LK-2  0.165
2. HCC-366  0.322
3. NCI-H1648  0.348
4. NCI-H2170  0.38
5. HOP-62  0.39
6. EMC-BAC-2  0.416
7. HCC-78  0.418
8. COR-L23  0.427
9. SW 900  0.433
10. NCI-H2087  0.485
11. SW 1573  0.532
12. LU99A  0.535
13. NCI-H1650  0.57
14. NCI-H596  0.631
15. NCI-H2342  0.658
16. NCI-H838  0.684
17. ChaGo-K-1  0.687
18. NCI-H2126  0.713
19. NCI-H1993  0.725
20. NCI-H520  0.741
21. LCLC-103H  0.745
22. LOU-NH91  0.814
23. COR-L 105  0.82
24. NCI-H2085  0.821
25. NCI-H1666  0.955
26. IA-LM  1.03
27. NCI-H2405  1.07
28. HCC-44  1.09
29. SK-MES-1  1.17
30. NCI-H727  1.22

same assay, conditions: first compound 1 µM

In order of falling relative viability:
1. NCI-H727  1.29
2. SK-MES-1  1.22
3. NCI-H1666  1.17
4. IA-LM  1.1
5. HCC-44  1.1
6. LOU-NH91  1.06
7. NCI-H2405  1.03
8. COR-L 105  0.989
9. NCI-H2170  0.941
10. NCI-H2085  0.842
11. LCLC-103H  0.838
12. SW 1573  0.831
13. NCI-H2126  0.828
14. NCI-H2087  0.814
15. H3255  0.797
16. NCI-H522  0.79
17. ChaGo-K-1  0.789
18. NCI-H2342  0.763
19. NCI-H520  0.748
20. NCI-H1993  0.728
21. NCI-H596  0.723
22. HOP-62  0.713
23. NCI-H838  0.672
24. SW 900  0.559
25. NCI-H1650  0.555
26. LU99A  0.528
27. EMC-BAC-2  0.524
28. HCC-78  0.499
29. COR-L23  0.48
30. HCC-366  0.461
31. NCI-H1648  0.437
32. LK-2  0.327

compound: CC[C@@H]1C(=O)N(C)c2cnc(Nc3ccc(C(=O)NC4CCN(C)CC4)cc3OC)nc2N1C1CCCC1 [BI-2536] + Cc1cc(Nc2cc(N3CCN(C)CC3)nc(Sc3ccc(NC(=O)C4CC4)cc3)n2)n[nH]1 [Tozasertib] (partner 0.1 µM); assay: as above; details: first compound 0.01 µM
In short: as §1

In order of rising relative viability:
1. HCC-366  0.119
2. LK-2  0.152
3. SW 1573  0.192
4. COR-L23  0.196
5. ChaGo-K-1  0.216
6. NCI-H838  0.239
7. NCI-H2087  0.25
8. LU99A  0.272
9. EMC-BAC-2  0.302
10. HOP-62  0.337
11. COR-L 105  0.351
12. NCI-H1650  0.403
13. HCC-78  0.405
14. NCI-H520  0.429
15. NCI-H1648  0.437
16. NCI-H2342  0.449
17. LCLC-103H  0.471
18. NCI-H1623  0.478
19. NCI-H522  0.488
20. NCI-H1993  0.497
21. SW 900  0.566
22. H3255  0.569
23. NCI-H1666  0.621
24. NCI-H727  0.646
25. LOU-NH91  0.694
26. NCI-H2170  0.713
27. NCI-H2405  0.73
28. NCI-H2085  0.787
29. NCI-H2126  0.884
30. NCI-H596  0.913
31. SK-MES-1  0.956
32. HCC-44  0.967

same assay, conditions: first compound 0.03162 µM

In order of falling relative viability:
1. NCI-H596  1.12
2. NCI-H2170  0.89
3. SK-MES-1  0.801
4. NCI-H2085  0.737
5. NCI-H727  0.695
6. SW 900  0.694
7. NCI-H1993  0.615
8. NCI-H522  0.581
9. NCI-H2405  0.566
10. LOU-NH91  0.543
11. NCI-H1666  0.52
12. NCI-H2342  0.508
13. H3255  0.507
14. NCI-H1623  0.448
15. NCI-H520  0.424
16. HOP-62  0.424
17. NCI-H1648  0.414
18. LCLC-103H  0.412
19. COR-L 105  0.408
20. NCI-H2126  0.373
21. HCC-44  0.333
22. HCC-78  0.304
23. EMC-BAC-2  0.302
24. NCI-H1650  0.283
25. NCI-H838  0.269
26. LU99A  0.235
27. ChaGo-K-1  0.227
28. NCI-H2087  0.214
29. COR-L23  0.189
30. HCC-366  0.169
31. SW 1573  0.166
32. LK-2  0.151

same assay, conditions: first compound 0.1 µM

In order of rising relative viability:
1. HCC-366  0.115
2. COR-L23  0.137
3. NCI-H2087  0.155
4. SW 1573  0.159
5. LK-2  0.173
6. SK-MES-1  0.191
7. EMC-BAC-2  0.201
8. ChaGo-K-1  0.219
9. NCI-H838  0.241
10. LU99A  0.248
11. NCI-H1650  0.252
12. HCC-44  0.262
13. LCLC-103H  0.284
14. HOP-62  0.29
15. NCI-H2126  0.296
16. COR-L 105  0.299
17. HCC-78  0.325
18. NCI-H1648  0.336
19. NCI-H520  0.365
20. NCI-H2405  0.381
21. NCI-H1623  0.383
22. NCI-H1666  0.415
23. SW 900  0.418
24. LOU-NH91  0.439
25. NCI-H2342  0.468
26. NCI-H2085  0.478
27. H3255  0.586
28. NCI-H2170  0.593
29. NCI-H1993  0.609
30. NCI-H522  0.634
31. NCI-H727  0.672
32. NCI-H596  0.769

same assay, conditions: first compound 0.3162 µM

In order of falling relative viability:
1. NCI-H1993  0.617
2. NCI-H727  0.496
3. NCI-H522  0.447
4. NCI-H1623  0.402
5. NCI-H520  0.395
6. NCI-H2342  0.378
7. NCI-H1666  0.369
8. NCI-H2085  0.368
9. LOU-NH91  0.34
10. COR-L 105  0.306
11. NCI-H2405  0.296
12. LCLC-103H  0.292
13. LU99A  0.281
14. SW 900  0.278
15. NCI-H596  0.267
16. HCC-78  0.253
17. NCI-H2126  0.236
18. NCI-H838  0.229
19. EMC-BAC-2  0.212
20. ChaGo-K-1  0.211
21. HOP-62  0.204
22. H3255  0.196
23. LK-2  0.187
24. NCI-H1650  0.179
25. NCI-H2170  0.177
26. NCI-H1648  0.159
27. SK-MES-1  0.151
28. COR-L23  0.145
29. HCC-44  0.143
30. SW 1573  0.127
31. NCI-H2087  0.119
32. HCC-366  0.038

same assay, conditions: first compound 1 µM

In order of rising relative viability:
1. HCC-366  0.0412
2. NCI-H2087  0.12
3. SW 1573  0.121
4. COR-L23  0.151
5. SK-MES-1  0.172
6. SW 900  0.173
7. LK-2  0.185
8. NCI-H1650  0.196
9. EMC-BAC-2  0.209
10. HCC-44  0.216
11. HOP-62  0.219
12. NCI-H1648  0.22
13. H3255  0.224
14. NCI-H838  0.225
15. LU99A  0.227
16. LOU-NH91  0.234
17. ChaGo-K-1  0.239
18. NCI-H596  0.247
19. NCI-H2170  0.249
20. LCLC-103H  0.252
21. HCC-78  0.259
22. NCI-H2126  0.269
23. NCI-H2342  0.294
24. NCI-H1623  0.328
25. NCI-H2405  0.33
26. COR-L 105  0.333
27. NCI-H520  0.361
28. NCI-H1666  0.372
29. NCI-H727  0.392
30. NCI-H522  0.412
31. NCI-H2085  0.438
32. NCI-H1993  0.59
